Data published in US20140127158A1, “COMBINATION THERAPY FOR HEPATITIS C VIRUS INFECTION” (National Health Research Institute, priority 2012, published 2014).
Read-outs that look alike come from different tables or passages of the source.

Key:
[1] = tested on: genotype 1b HCV replicon with NS5A amino acid substitutions; assay: Transient replicon assay, genotype 1b NS5A amino acid substitutions; format: cell-based, Hepatitis C virus; conditions: for EC50 / EC90: Hepatitis C virus
[2] = tested on: HCV1b reporter replicon pRS-Luc-HCV1bRep; assay: Transient HCV1b reporter replicon time course (viral translation vs RNA synthesis); format: cell-based, Hepatitis C virus
Method: (8) RNA transcription and transient replicon assay. The RNA transcripts were synthesized in vitro using ScaI-digested DNAs and the T7 MegaScript transcription kit (Ambion) according to the manufacturer's directions. A transient replicon assay was performed to quantify the compound-mediated inhibition of viral translation (Dears et al., J Virol 79:4599-609 (2005)). RNA transcripts were transfected into Huh-7.5 cells by electroporation, as described previously. See, e.g., Blight et al., J Virol 76:13001-14 (2002). A specific concentration of DBPR110 or the control medium was added to each well, and the cells were assayed to determine the luciferase activity at 4 h and 72 h post-transfection. […] For quantification of the compound-mediated inhibition, the relative luciferase activity derived from the mock-treated cells was set to 100% (Zou et al., Virology 384:242-52 (2009)).
To distinguish inhibition of viral translation from inhibition of RNA synthesis, the reduction rate of reporter gene expression level was monitored as an indicator of the inhibitory activity of DBPR110. […] The luciferase activity was monitored several times over a period of 72 hours posttransfection. […] The luciferase activity was measured at 4, 8, 24, 48, and 72 hours posttransfection.

[3] = tested on: HCV genotype 1b replicon; assay: Inhibitor combination study (combination index, CalcuSyn); conditions: at the concentrations used in the combination experiments
[4] = tested on: HCV genotype 1b Con1 replicon cells; assay: Isolation of resistant replicons, genotype 1b; format: cell-based, Hepatitis C virus
Method: Selection of resistant replicon cells was performed by growing HCV genotype 1b Con1 and 2a JFH1 replicon cells in medium containing 0.2 or 200 nM and 60 nM or 1 μM of DBPR110, respectively. Medium containing the compound was added to monolayers of HCV1b-neo replicon cells at ˜25% confluence in the presence of 0.2 to 0.4 mg/mL of G418. Replicon cells maintained in the presence of dimethyl sulfoxide (DMSO) were used as a control. After 40 days, total RNA was isolated from both the control replicon cells and homogeneous cell lines containing compound using the TRIzol reagent (Invitrogen, Carlsbad, Calif.) according to the manufacturer's protocol. The RNA was amplified by reverse transcription-PCR (RT-PCR).
To characterize the resistance profile of DBPR110, cell clones resistant to DBPR110 were obtained by culturing HCV genotype 1b replicon cells in the presence of G418 and increasing concentrations of DBPR110 ranging from 50- to 50,000-fold the EC50 value.

[5] = Cytotoxicity assay (MTT); format: cell-based; conditions: human, read-out: CC50
Method: (4) Cytotoxicity assay. The sensitivity of the cell lines to inhibitors was examined using a 3-(4,5-Dimethylthiazol-2-yl)-2,5-diphenyltetrazolium bromide (MTT) assay. Briefly, Huh-7.5 cells were plated at a density of 1×10^5 cells per well in 12-well plates containing 1 mL of culture medium for 4 h. Serial dilutions of the compounds or DMSO (negative control) were added, and the plates were incubated for an additional 72 h. The MTT reagent was then added to each well, and the plates were incubated for 3 h at 37° C. in a humidified 5% CO2 atmosphere before reading at a wavelength of 563 nm using an ELISA plate reader. All data are presented as the means +/−SD from four independent experiments.

[6] = genotype 1b NS5A V153M + M202L + M265V
[7] = genotype 1b NS5A Y93H + V153M + M202L + M265V
[8] = genotype 1b NS5A Y93N + V153M + M202L + M265V

For `O=C(N[C@@H](C(=O)N1CCC[C@H]1c1ncc(-c2ccc(-c3ccc(-c4cnc([C@@H]5CCCN5C(=O)[C@H](NC(=O)C5CC5)c5ccccc5)s4)cc3)cc2)s1)c1ccccc1)C1CC1` [DBPR110], the EC50 ([1]; genotype 1b NS5A M202L) was 0.0021 ± 0.0006 nM, the EC90 ([1]; genotype 1b NS5A M202L) was 0.005 ± 0.0014 nM and the EC50 ([1]; genotype 1b NS5A M265V) was 0.002 ± 0.0009 nM. It also gave an EC90 ([1]; genotype 1b NS5A M265V) of 0.0051 ± 0.0017 nM, an EC50 ([1]; genotype 1b NS5A P58L) of 0.564 ± 0.194 nM and an EC90 ([1]; genotype 1b NS5A P58L) of 2.73 ± 0.909 nM. The EC50 ([1]; genotype 1b NS5A P58S) was 0.038 ± 0.014 nM, the EC90 ([1]; genotype 1b NS5A P58S) was 0.064 ± 0.011 nM and the EC50 ([1]; genotype 1b NS5A P58T) was 0.243 ± 0.04 nM. It also gave an EC90 ([1]; genotype 1b NS5A P58T) of 1.3 ± 0.219 nM, an EC50 ([1]; genotype 1b NS5A Parental) of 0.0015 ± 0.0006 nM and an EC90 ([1]; genotype 1b NS5A Parental) of 0.0042 ± 0.0021 nM. It also gave an EC50 ([1]; genotype 1b NS5A V153M) of 0.0013 ± 0.0005 nM, an EC90 ([1]; genotype 1b NS5A V153M) of 0.0041 ± 0.0019 nM and an EC50 [1, 6] of 0.0011 ± 0.0005 nM. For the same molecule, the EC90 [1, 6] was 0.0031 ± 0.0011 nM, the EC50 ([1]; genotype 1b NS5A Y93C) was 0.078 ± 0.04 nM and the EC90 ([1]; genotype 1b NS5A Y93C) was 0.177 ± 0.062 nM. For the same molecule, the EC50 ([1]; genotype 1b NS5A Y93H) was 1.41 nM, the EC90 ([1]; genotype 1b NS5A Y93H) was 7.34 nM and the EC50 [1, 7] was 8.74 nM. For the same molecule, the EC90 [1, 7] was 37.7 nM, the EC50 ([1]; genotype 1b NS5A Y93N) was 3.82 nM and the EC90 ([1]; genotype 1b NS5A Y93N) was 13.3 nM. The EC50 [1, 8] was 27.3 nM, the EC90 [1, 8] was 98.9 nM and the “Fold resistance (EC50)” value ([1]; genotype 1b NS5A M202L) was 1 fold. The “Fold resistance (EC90)” value ([1]; genotype 1b NS5A M202L) was 1 fold, the “Fold resistance (EC50)” value ([1]; genotype 1b NS5A M265V) was 1 fold and the “Fold resistance (EC90)” value ([1]; genotype 1b NS5A M265V) was 1 fold. For the same molecule, the “Fold resistance (EC50)” value ([1]; genotype 1b NS5A P58L) was 376 fold, the “Fold resistance (EC90)” value ([1]; genotype 1b NS5A P58L) was 650 fold and the “Fold resistance (EC50)” value ([1]; genotype 1b NS5A P58S) was 25 fold. For the same molecule, the “Fold resistance (EC90)” value ([1]; genotype 1b NS5A P58S) was 15 fold, the “Fold resistance (EC50)” value ([1]; genotype 1b NS5A P58T) was 162 fold and the “Fold resistance (EC90)” value ([1]; genotype 1b NS5A P58T) was 310 fold. The “Fold resistance (EC50)” value ([1]; genotype 1b NS5A Parental) was 1 fold, the “Fold resistance (EC90)” value ([1]; genotype 1b NS5A Parental) was 1 fold and the “Fold resistance (EC50)” value ([1]; genotype 1b NS5A V153M) was 1 fold. The “Fold resistance (EC90)” value ([1]; genotype 1b NS5A V153M) was 1 fold, the “Fold resistance (EC50)” value [1, 6] was 1 fold and the “Fold resistance (EC90)” value [1, 6] was 1 fold. The “Fold resistance (EC50)” value ([1]; genotype 1b NS5A Y93C) was 52 fold, the “Fold resistance (EC90)” value ([1]; genotype 1b NS5A Y93C) was 42 fold and the “Fold resistance (EC50)” value ([1]; genotype 1b NS5A Y93H) was 939 fold. For the same molecule, the “Fold resistance (EC90)” value ([1]; genotype 1b NS5A Y93H) was 1,747 fold, the “Fold resistance (EC50)” value [1, 7] was 5,824 fold and the “Fold resistance (EC90)” value [1, 7] was 8,979 fold. For the same molecule, the “Fold resistance (EC50)” value ([1]; genotype 1b NS5A Y93N) was 2,547 fold, the “Fold resistance (EC90)” value ([1]; genotype 1b NS5A Y93N) was 3,168 fold and the “Fold resistance (EC90)” value [1, 8] was 23,550 fold. The “effect on the Rluc signals” value ([2]; 4 and 8 hours posttransfection (viral translation)) was “minimal effect”, the “effect on the Rluc signals” value ([2]; 24, 48, and 72 hours posttransfection (RNA replication), P<0.001) was “significantly reduced” and the cytotoxicity [3] was “No cytotoxicity was observed”. For the same molecule, the “fold more resistant than parental cells” value ([4]; DBPR110-resistant cells (DBPR110R), genotype 1b) was “greater than 14,000 fold”, the EC50 ([4]; Hepatitis C virus) was > 55 nM and the CC50 at 72 h ([5]; Genotype 2a, JFH1) was > 50000 nM. For the same molecule, the CC50 at 72 h ([5]; HCV-1b replicon cell lines, single agent) was > 50 nM, the CC50 at 72 h ([5]; Huh-7.5 cells, Genotype 1b, Con1) was > 50000 nM and the CC50 at 72 h ([5]; Infectious HCV, Genotype 2a, JFH1) was > 50000 nM.
